Legend:
Kuramochi cell line = experiment: Cell Viability Assay (Cell Titer-Glo, 7 days); format: cell-based; settings: 168 h, Kuramochi cells, 7 days incubation, read-out: PARG Cell viability (IC50)
Method: Cell viability studies were conducted in Kuramochi cell line. Cells were maintained in RPMI (Hyclone, Catalog #: SH3080901B) supplemented with 10% v/v FBS (AusGeneX, Catalog #: FBS500-S), 1% v/v Penicillin Streptomycin (Gibco, Catalog #: 15140122). Cells were seeded in 96-well plates (PerkinElmer, Catalog #: 6005680) at a density of 400 cells/well. Compounds dissolved in DMSO were plated in duplicate using a multichannel pipette, and tested on a 9-point 3-fold serial dilution. Cells were incubated for 7 days in a 37° C. active humidified incubator at 5% CO2. Cell viability was measured using the Cell Titer-Glo reagent (Promega, Catalog #: G7573) as manufacturer's instructions. Luminescence signal was measured with a multimode plate reader (Perkin Elmer, Envision 2105 or BMG, ClarioStar Plus). Average values of DMSO treated wells in a plate was calculated and as high control (HC). Average values of only medium in a plate was calculated and as low control (LC)
(§1) IC50 values were determined by fitting the data to the standard 4 parameters with Hill Slope using GraphPad Prism software.

[1] = target: hPARG (C-terminal His6-tag) (Homo sapiens (Human), UniProt Q86W56); experiment: PARG Enzymatic Activity Assay (HTRF); format: biochemical; settings: hPARG 65 pM final, biotinylated-NAD ribosylated PARP1 8 nM final
Chain of hPARG (C-terminal His6-tag) (Q86W56 whole entry): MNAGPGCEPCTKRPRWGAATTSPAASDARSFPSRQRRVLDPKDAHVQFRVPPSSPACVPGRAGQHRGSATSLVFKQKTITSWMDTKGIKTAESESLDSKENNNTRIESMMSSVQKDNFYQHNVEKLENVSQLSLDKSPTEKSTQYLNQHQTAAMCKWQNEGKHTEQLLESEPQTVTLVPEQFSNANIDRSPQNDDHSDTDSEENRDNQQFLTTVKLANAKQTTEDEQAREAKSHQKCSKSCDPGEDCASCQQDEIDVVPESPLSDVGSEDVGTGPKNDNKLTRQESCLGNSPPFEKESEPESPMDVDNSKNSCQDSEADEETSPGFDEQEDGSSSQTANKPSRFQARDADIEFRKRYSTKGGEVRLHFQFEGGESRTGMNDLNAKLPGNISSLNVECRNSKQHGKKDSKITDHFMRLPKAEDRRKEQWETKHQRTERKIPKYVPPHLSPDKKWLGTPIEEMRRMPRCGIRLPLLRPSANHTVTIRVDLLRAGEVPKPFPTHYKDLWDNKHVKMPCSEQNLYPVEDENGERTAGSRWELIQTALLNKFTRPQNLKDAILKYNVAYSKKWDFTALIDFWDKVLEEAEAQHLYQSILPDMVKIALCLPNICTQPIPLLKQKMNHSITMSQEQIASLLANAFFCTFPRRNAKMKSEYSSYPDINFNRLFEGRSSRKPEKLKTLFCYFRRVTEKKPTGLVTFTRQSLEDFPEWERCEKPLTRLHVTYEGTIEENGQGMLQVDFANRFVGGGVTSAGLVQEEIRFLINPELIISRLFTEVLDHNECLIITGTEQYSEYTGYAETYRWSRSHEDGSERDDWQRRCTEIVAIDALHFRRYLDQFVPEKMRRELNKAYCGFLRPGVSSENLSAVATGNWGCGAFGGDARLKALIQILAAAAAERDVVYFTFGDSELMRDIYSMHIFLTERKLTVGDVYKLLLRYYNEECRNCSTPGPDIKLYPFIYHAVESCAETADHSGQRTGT
Method: PARG Enzymatic Activity Assay HTRF assay was used to measure the ability of compounds to inhibit the activity of PARG in vitro. C-terminal His6-tag PARG expressed in E. coli was purified and stored at −80° C. in aliquots. Assay measurements were performed with 1×buffer comprising 50 mM Tris pH 7.4, 0.1 mg/mL BSA, 3 mM EDTA, 0.4 mM EGTA, 1 mM DTT, 50 mM KCl and 0.01% Tween 20.
Compounds dissolved in DMSO were plated into a 384-well assay plate (PerkinElmer, Catalog #: 6008280) in duplicate using a dispenser (Labcyte, Echo 665), and tested on a 10-point 4-fold serial dilution. Add 5 L Enzyme mix [hPARG (C-terminal His6-tag, 4.2 μM), 65 pM final] to the test wells. The plates were covered and left to incubate for 60 minutes at RT before the addition of 5 L substrate mix [biotinylated-NAD ribosylated PARP1 (6.1 μM), 8 nM final] to initiate reaction. After incubating 10 minutes at RT, add 2.5 L Streptavidin-Eu cryptate (Cisbio, Catalog #: 610SAKLA) and 2.5 L Mab anti 6HIS-XL665 (Cisbio, Catalog #: 61HISXLA) to the plate, and incubate for 60 minutes at RT. Read on a multimode plate reader (PerkinElmer, Envision 2015) in time-resolved fluorescence (TRF) mode, with excitation at 337 nm and emission at both 620 nm and 665 nm. Average HTRF signal of high control (Wells with 1% DMSO) was calculated and as Vehicle Control (VC). Average HTRF signal of low control (no Enzyme) was calculated and as Positive control (PC).
as §1

Compound	IC50 [1] [nM]	IC50 (Kuramochi cell line) [nM]
C[C@@H]1CN(c2ncnc3c2c2ccc(S(=O)(=O)NC4(C#N)CC4)cc2n3-c2nnc(C(F)F)s2)C[C@H](C)N1C(=O)C1CC1 [Example 29, N-(1-Cyanocyclopropyl)-4-((3S,5R)-4-(cyclopropanecarbonyl)-3,5-dimethylpiperazin-1-yl)-9-(5-(difluoromethyl)-1,3,4-thiadiazol-2-yl)-9H-pyrimido[4,5-b]indole-7-sulfonamide]	< 100	< 100
N#CC1(NS(=O)(=O)c2ccc3c4c(N5CCN(C(=O)C6CCC6)CC5)ncnc4n(-c4nnc(C(F)F)s4)c3c2)CC1 [Example 30, N-(1-Cyanocyclopropyl)-4-(4-(cyclobutanecarbonyl)piperazin-1-yl)-9-(5-(difluoromethyl)-1,3,4-thiadiazol-2-yl)-9H-pyrimido[4,5-b]indole-7-sulfonamide]	< 100	100 to 1000
CC(C)C(=O)N1[C@H](C)CN(c2ncnc3c2c2ccc(S(=O)(=O)NC4(C#N)CC4)cc2n3-c2nnc(C(F)F)s2)C[C@H]1C [Example 31, N-(1-Cyanocyclopropyl)-9-(5-(difluoromethyl)-1,3,4-thiadiazol-2-yl)-4-((3R,5R)-4-isobutyryl-3,5-dimethylpiperazin-1-yl)-9H-pyrimido[4,5-b]indole-7-sulfonamide]	100 to 1000	100 to 1000
CC(C)C(=O)N1C[C@@H](C)N(c2ncnc3c2c2ccc(S(=O)(=O)NC4(C#N)CC4)cc2n3-c2nnc(C(F)F)s2)C[C@@H]1C [Example 33, N-(1-Cyanocyclopropyl)-9-(5-(difluoromethyl)-1,3,4-thiadiazol-2-yl)-4-((2R,5S)-4-isobutyryl-2,5-dimethylpiperazin-1-yl)-9H-pyrimido[4,5-b]indole-7-sulfonamide]	< 100	< 100
N#CC1(NS(=O)(=O)c2ccc3c4c(N5CCN(C(=O)C6CCOC6)CC5)ncnc4n(-c4nnc(C(F)F)s4)c3c2)CC1 (centres unmarked) [Example 34, N-(1-Cyanocyclopropyl)-9-(5-(difluoromethyl)-1,3,4-thiadiazol-2-yl)-4-(4-(tetrahydrofuran-3-carbonyl)piperazin-1-yl)-9H-pyrimido[4,5-b]indole-7-sulfonamide]	< 100	< 100
Cc1ccc(C(=O)N2CCN(c3ncnc4c3c3ccc(S(=O)(=O)NC5(C#N)CC5)cc3n4-c3nnc(C(F)F)s3)CC2)nc1 [Example 35, N-(1-Cyanocyclopropyl)-9-(5-(difluoromethyl)-1,3,4-thiadiazol-2-yl)-4-(4-(5-methylpicolinoyl)piperazin-1-yl)-9H-pyrimido[4,5-b]indole-7-sulfonamide]	< 100	< 100
CC1(C(=O)N2CC3CN(c4ncnc5c4c4ccc(S(=O)(=O)NC6(C#N)CC6)cc4n5-c4nnc(C(F)F)s4)CC3C2)CC1 (centres unmarked) [Example 36, N-(1-Cyanocyclopropyl)-9-(5-(difluoromethyl)-1,3,4-thiadiazol-2-yl)-4-(5-(1-methylcyclopropane-1-carbonyl)hexahydropyrrolo[3,4-c]pyrrol-2(1H)-yl)-9H-pyrimido[4,5-b]indole-7-sulfonamide]	< 100	100 to 1000
C[C@H]1CN(c2ncnc3c2c2ccc(S(=O)(=O)NC4(C#N)CC4)cc2n3-c2nnc(C(F)F)s2)CCN1C(=O)N(C)C [Example 37, (S)-4-(7-(N-(1-Cyanocyclopropyl)sulfamoyl)-9-(5-(difluoromethyl)-1,3,4-thiadiazol-2-yl)-9H-pyrimido[4,5-b]indol-4-yl)-N,N,2-trimethylpiperazine-1-carboxamide]	< 100	< 100

The next lines start with results.

IC50 [1] [nM]	Compound	IC50 (Kuramochi cell line) [nM]
< 100	CC(C)C(=O)N1C[C@H](C)N(c2ncnc3c2c2ccc(S(=O)(=O)NC4(C#N)CC4)cc2n3-c2nnc(C(F)F)s2)C[C@H]1C [Example 38, N-(1-Cyanocyclopropyl)-9-(5-(difluoromethyl)-1,3,4-thiadiazol-2-yl)-4-((2S,5R)-4-isobutyryl-2,5-dimethylpiperazin-1-yl)-9H-pyrimido[4,5-b]indole-7-sulfonamide]	100 to 1000
< 100	C[C@@H]1CN(c2ncnc3c2c2ccc(S(=O)(=O)NC4(C#N)CC4)cc2n3-c2nnc(C(F)F)s2)C[C@H](C)N1C(=O)CN1CCOCC1 [Example 39, N-(1-Cyanocyclopropyl)-9-(5-(difluoromethyl)-1,3,4-thiadiazol-2-yl)-4-((3R,5S)-3,5-dimethyl-4-(2-morpholinoacetyl)piperazin-1-yl)-9H-pyrimido[4,5-b]indole-7-sulfonamide]	< 100
< 100	N#CC1(NS(=O)(=O)c2ccc3c4c(N5CCN(CC6CC6)C(=O)C5)ncnc4n(-c4nnc(C(F)F)s4)c3c2)CC1 [Example 40, N-(1-Cyanocyclopropyl)-4-(4-(cyclopropylmethyl)-3-oxopiperazin-1-yl)-9-(5-(difluoromethyl)-1,3,4-thiadiazol-2-yl)-9H-pyrimido[4,5-b]indole-7-sulfonamide]	< 100
< 100	N#CC1(NS(=O)(=O)c2ccc3c4c(N5CCN(C(=O)N6CCCC6)CC5)ncnc4n(-c4nnc(C(F)F)s4)c3c2)CC1 [Example 41, N-(1-Cyanocyclopropyl)-9-(5-(difluoromethyl)-1,3,4-thiadiazol-2-yl)-4-(4-(pyrrolidine-1-carbonyl)piperazin-1-yl)-9H-pyrimido[4,5-b]indole-7-sulfonamide]	< 100
< 100	CN(CC(F)(F)F)C(=O)N1CCN(c2ncnc3c2c2ccc(S(=O)(=O)NC4(C#N)CC4)cc2n3-c2nnc(C(F)F)s2)CC1 [Example 42, 4-(7-(N-(1-Cyanocyclopropyl)sulfamoyl)-9-(5-(difluoromethyl)-1,3,4-thiadiazol-2-yl)-9H-pyrimido[4,5-b]indol-4-yl)-N-methyl-N-(2,2,2-trifluoroethyl)piperazine-1-carboxamide]	< 100
< 100	CN(C)C(=O)c1ccc(-c2ncnc3c2c2ccc(S(=O)(=O)NC4(C#N)CC4)cc2n3-c2nnc(C(F)F)s2)cc1 [Example 43, 4-(7-(N-(1-Cyanocyclopropyl)sulfamoyl)-9-(5-(difluoromethyl)-1,3,4-thiadiazol-2-yl)-9H-pyrimido[4,5-b]indol-4-yl)-N,N-dimethylbenzamide]	100 to 1000
< 100	COC1CCN(c2ncnc3c2c2ccc(S(=O)(=O)NC4(C#N)CC4)cc2n3-c2nnc(C(F)F)s2)CC1 [Example 44, N-(1-Cyanocyclopropyl)-9-(5-(difluoromethyl)-1,3,4-thiadiazol-2-yl)-4-(4-methoxypiperidin-1-yl)-9H-pyrimido[4,5-b]indole-7-sulfonamide]	< 100
< 100	C[C@@H]1CN(C(=O)N(C)C)[C@@H](C)CN1c1ncnc2c1c1cc(F)c(S(=O)(=O)NC3(C#N)CC3)cc1n2-c1nnc(C(F)F)s1 [Example 45, (2S,5R)-4-(7-(N-(1-Cyanocyclopropyl)sulfamoyl)-9-(5-(difluoromethyl)-1,3,4-thiadiazol-2-yl)-6-fluoro-9H-pyrimido[4,5-b]indol-4-yl)-N,N,2,5-tetramethylpiperazine-1-carboxamide]	< 100
< 100	C[C@H]1CN(c2ncnc3c2c2cc(F)c(S(=O)(=O)NC4(C#N)CC4)cc2n3-c2nnc(C(F)F)s2)CCN1C(=O)N(C)C [Example 46, (S)-4-(7-(N-(1-Cyanocyclopropyl)sulfamoyl)-9-(5-(difluoromethyl)-1,3,4-thiadiazol-2-yl)-6-fluoro-9H-pyrimido[4,5-b]indol-4-yl)-N,N,2-trimethylpiperazine-1-carboxamide]	< 100
< 100	COC1(C(F)(F)F)CCN(c2ncnc3c2c2ccc(S(=O)(=O)NC4(C#N)CC4)cc2n3-c2nnc(C(F)F)s2)CC1 [Example 47, N-(1-Cyanocyclopropyl)-9-(5-(difluoromethyl)-1,3,4-thiadiazol-2-yl)-4-(4-methoxy-4-(trifluoromethyl)piperidin-1-yl)-9H-pyrimido[4,5-b]indole-7-sulfonamide]	100 to 1000
< 100	CC1(O)CCN(c2ncnc3c2c2ccc(S(=O)(=O)NC4(C#N)CC4)cc2n3-c2nnc(C(F)F)s2)CC1 [Example 48, N-(1-Cyanocyclopropyl)-9-(5-(difluoromethyl)-1,3,4-thiadiazol-2-yl)-4-(4-hydroxy-4-methylpiperidin-1-yl)-9H-pyrimido[4,5-b]indole-7-sulfonamide]	< 100

From patent publication US20250388589A1, “TRICYCLIC HETEROCYCLIC DERIVATIVES, COMPOSITIONS AND USES THEREOF” (Danatlas Pharmaceuticals Co., Ltd., priority 2022, published 2025)
